Patent US10065990B2, “Cyclic peptide compound, and preparation method, pharmaceutical composition and use thereof” (HANGZHOU GUANYU BIO-MEDICAL CO., LTD, priority 2013, dated 2018)
Read-outs that look alike come from different tables or passages of the source.

How the values were obtained:
HDAC1 = HDAC1 (Homo sapiens, UniProt Q13547); assay: HDAC biochemical activity measurement (fluorescent substrate deacetylation);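 also: fluorogenic acetyl-lysine substrate (20 µM) deacetylated by HDAC1, then developer releases fluorophore read at 360 nm excitation and 460 nm emission, inhibitor incubated 30 min at 37 °C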
HDAC1, sequence (Q13547 whole entry, species assumed): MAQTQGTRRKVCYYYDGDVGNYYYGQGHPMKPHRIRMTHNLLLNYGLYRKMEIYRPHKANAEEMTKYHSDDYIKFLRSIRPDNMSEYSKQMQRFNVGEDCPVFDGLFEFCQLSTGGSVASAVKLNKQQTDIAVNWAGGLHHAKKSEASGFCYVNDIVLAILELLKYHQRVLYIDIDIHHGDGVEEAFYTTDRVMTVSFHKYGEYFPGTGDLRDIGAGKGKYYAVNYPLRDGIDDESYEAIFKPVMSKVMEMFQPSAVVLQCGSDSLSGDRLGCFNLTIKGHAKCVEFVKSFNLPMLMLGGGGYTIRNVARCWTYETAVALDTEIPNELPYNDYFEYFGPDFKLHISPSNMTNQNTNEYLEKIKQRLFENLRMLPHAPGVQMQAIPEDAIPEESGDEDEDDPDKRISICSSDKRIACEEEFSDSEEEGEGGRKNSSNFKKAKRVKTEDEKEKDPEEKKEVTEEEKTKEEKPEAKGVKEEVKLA

HDAC2 = HDAC2 (Homo sapiens, UniProt Q92769); assay: as above; details: 37° C. 30 minutes;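 also: HDAC2 enzyme with an acetyl-lysine fluorescent substrate, then developer added, fluorescence read at excitation 360 nm and emission 460 nm, inhibition measured across several compound concentrations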
HDAC2, sequence (Q92769 whole entry, species assumed): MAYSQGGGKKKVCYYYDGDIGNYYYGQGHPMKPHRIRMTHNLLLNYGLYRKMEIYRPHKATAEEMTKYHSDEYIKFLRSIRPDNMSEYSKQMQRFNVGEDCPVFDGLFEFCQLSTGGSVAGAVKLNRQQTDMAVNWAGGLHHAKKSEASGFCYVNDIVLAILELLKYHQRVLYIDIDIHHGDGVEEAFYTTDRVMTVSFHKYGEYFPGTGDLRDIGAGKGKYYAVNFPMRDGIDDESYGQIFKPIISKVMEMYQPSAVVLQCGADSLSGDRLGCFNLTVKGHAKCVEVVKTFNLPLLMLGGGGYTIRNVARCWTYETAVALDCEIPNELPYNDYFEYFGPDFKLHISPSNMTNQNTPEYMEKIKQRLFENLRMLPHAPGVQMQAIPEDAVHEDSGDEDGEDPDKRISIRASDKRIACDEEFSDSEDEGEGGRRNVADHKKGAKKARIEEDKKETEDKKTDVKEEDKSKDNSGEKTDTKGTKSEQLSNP

HDAC7 = target: T1, HDAC7 (Homo sapiens, UniProt Q8WUI4); assay: as above; details: HDAC7; 37° C. 30 minutes;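 also: fluorogenic deacetylation assay using acetyl-lysine substrate at 20 µM, enzyme and compound incubated 30 min at 37 °C, then developer added, fluorescence read at 360/460 nm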
T1 sequence (Q8WUI4 1-952): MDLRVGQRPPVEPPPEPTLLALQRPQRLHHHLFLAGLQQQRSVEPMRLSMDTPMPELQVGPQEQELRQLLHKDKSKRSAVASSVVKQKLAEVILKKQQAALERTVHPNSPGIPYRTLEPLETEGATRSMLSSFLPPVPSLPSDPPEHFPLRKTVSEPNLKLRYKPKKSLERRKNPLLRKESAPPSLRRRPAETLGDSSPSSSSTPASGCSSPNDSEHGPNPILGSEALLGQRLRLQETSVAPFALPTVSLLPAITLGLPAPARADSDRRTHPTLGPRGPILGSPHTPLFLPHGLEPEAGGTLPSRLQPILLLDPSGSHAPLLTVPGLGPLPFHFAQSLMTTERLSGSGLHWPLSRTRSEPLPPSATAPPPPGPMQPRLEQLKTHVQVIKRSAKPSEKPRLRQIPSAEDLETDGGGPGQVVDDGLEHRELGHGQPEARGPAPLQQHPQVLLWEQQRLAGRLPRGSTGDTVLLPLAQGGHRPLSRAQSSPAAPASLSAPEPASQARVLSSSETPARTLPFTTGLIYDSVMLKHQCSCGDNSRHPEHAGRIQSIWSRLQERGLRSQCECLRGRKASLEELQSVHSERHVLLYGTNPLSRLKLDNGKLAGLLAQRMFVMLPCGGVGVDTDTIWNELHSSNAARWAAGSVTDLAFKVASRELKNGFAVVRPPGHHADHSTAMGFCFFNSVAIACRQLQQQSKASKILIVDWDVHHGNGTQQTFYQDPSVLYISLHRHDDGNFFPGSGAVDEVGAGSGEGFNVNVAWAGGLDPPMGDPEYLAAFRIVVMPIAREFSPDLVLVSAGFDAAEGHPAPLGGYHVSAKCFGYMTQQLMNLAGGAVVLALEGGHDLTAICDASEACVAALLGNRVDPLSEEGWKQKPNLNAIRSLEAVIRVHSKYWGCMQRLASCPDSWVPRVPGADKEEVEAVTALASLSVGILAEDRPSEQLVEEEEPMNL

[1] = system: A549 (human lung cancer cells); assay: MTT cancer cell growth inhibition; format: cell-based; details: Homo sapiens, A549, 72 h, MTT
Summary of the method: (§1)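 GI50 values come from viability measured by MTT reduction at 570 nm. Plated overnight at 1500 cells per well, cultures received drug in three parallel wells across 10^−5–10^−10 M final and were incubated 72 h at 37° C. under 5% CO2 before MTT for 4 h.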

[2] = system: Huh-7 (human hepatoma cells); assay: MTT cancer cell growth inhibition; format: cell-based; details: Homo sapiens, Huh-7, 72 h, MTT, 72 hours incubation, Huh-7 cells; read-out: GI50 Huh-7
Summary of the method: as §1

[3] = system: KBM5-T315I (human chronic myelogenous leukemia); assay: MTT cancer cell growth inhibition; format: cell-based; details: Homo sapiens, 72 h, MTT, 72 hours incubation, KBM5-T315I cells; read-out: GI50 KBM5-T315I
Summary of the method: as §1

[4] = system: MCF-7 (human breast cancer cells); assay: MTT cancer cell growth inhibition; format: cell-based; details: Homo sapiens, MCF7, 72 h
Summary of the method: as §1

[5] = system: MDA-MB-231 (breast cancer cells); assay: MTT cancer cell growth inhibition; format: cell-based; details: Homo sapiens, MDA-MB-231, 72 h, read-out: GI50 MDA-MB-231, MTT, 72 hours incubation, MDA-MB-231 cells
Summary of the method: as §1

[6] = system: MOLT-4 (human acute lymphoblastic leukemia cells); assay: MTT cancer cell growth inhibition; format: cell-based; details: Homo sapiens, MOLT-4, 72 h, MTT
Summary of the method: as §1

[7] = system: PANC-1 (Pac-1, human pancreatic cancer cells); assay: MTT cancer cell growth inhibition; format: cell-based; details: Homo sapiens, PANC-1, 72 h, MTT
Summary of the method: as §1

[8] = system: SGC-7901 (human gastric cancer cells); assay: MTT cancer cell growth inhibition; format: cell-based; details: Homo sapiens, SGC-7901, 72 h, MTT, 72 hours incubation, SGC-7901 cells; read-out: GI50 SGC-7901
Summary of the method: as §1

[9] = system: lncap (prostate cancer cells); assay: MTT cancer cell growth inhibition; format: cell-based; details: Homo sapiens, LNCaP, 72 h, MTT
Summary of the method: as §1

HDAC11 = target: T2, HDAC11 (Homo sapiens, UniProt Q96DB2); assay: HDAC biochemical activity measurement (fluorescent substrate deacetylation);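 also: HDAC11 enzyme acting on an acetyl-lysine fluorogenic substrate, then a developer frees the fluorophore, read at excitation 360 nm and emission 460 nm, IC50 over a compound dilution series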
T2 sequence (Q96DB2 1-347): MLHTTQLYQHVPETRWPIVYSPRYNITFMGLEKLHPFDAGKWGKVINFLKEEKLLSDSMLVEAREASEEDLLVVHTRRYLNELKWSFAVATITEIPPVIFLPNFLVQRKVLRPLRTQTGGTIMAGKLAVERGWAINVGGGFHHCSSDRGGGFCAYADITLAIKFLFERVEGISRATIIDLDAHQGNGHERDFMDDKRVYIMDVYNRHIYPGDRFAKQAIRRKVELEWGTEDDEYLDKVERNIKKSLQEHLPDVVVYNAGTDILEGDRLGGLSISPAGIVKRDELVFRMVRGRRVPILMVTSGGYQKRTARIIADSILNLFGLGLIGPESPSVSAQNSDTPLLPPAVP

[10] = HDAC1, 37° C. 30 minutes, read-out: IC50 HDAC1
[11] = 72 hours incubation, read-out: GI50 A54
[12] = 72 hours incubation, read-out: GI50 MCF
[13] = 72 hours incubation, read-out: GI50 Mol
[14] = 72 hours incubation, read-out: GI50 PAN
[15] = 72 hours incubation, read-out: GI50 lnca
[16] = Table 2, read-out: IC50 HDAC1, a (compounds of the present invention)
[17] = A549 cells, 72 hours incubation, read-out: GI50 A54
[18] = 72 hours, present invention, read-out: GI50 A549, a
[19] = 72 hours, present invention, read-out: GI50 MCF7, a
[20] = MCF-7 cells, 72 hours incubation, read-out: GI50 MCF
[21] = MOLT-4 cells, 72 hours incubation, read-out: GI50 Mol
[22] = 72 hours, present invention, read-out: GI50 Molt-4, a
[23] = 72 hours, present invention, read-out: GI50 PANC-1, a
[24] = PANC-1 cells, 72 hours incubation, read-out: GI50 PAN
[25] = 72 hours, present invention, read-out: GI50 lncap, a
[26] = lncap cells, 72 hours incubation, read-out: GI50 lnca
[27] = read-out: IC50 HDAC11, HDAC11, 37° C. 30 minutes
[28] = Table 3, read-out: IC50 HDAC1, D (non-substituent)

Row | IC50 (HDAC1; [10]) [nM] | IC50 (HDAC2) [nM] | IC50 HDAC7 (HDAC7) | GI50 [1, 11] [nM] | GI50 [2] [nM] | GI50 [3] [nM] | GI50 [4, 12] [nM] | GI50 [5] [nM] | GI50 [6, 13] [nM] | GI50 [7, 14] [nM] | GI50 [8] [nM] | GI50 [9, 15] [nM] | IC50 (HDAC1; [16]) [nM] | GI50 [1, 17] [nM] | GI50 [1, 18] [nM] | GI50 [4, 19] [nM] | GI50 [4, 20] [nM] | GI50 [6, 22] [nM] | GI50 [7, 23] [nM] | IC50 (HDAC11; [27]) [nM] | Compound | other results
1 | 51 | 29 | no activity | 70 | 58 | 31 | 60 | 41 | 100 | 60 | 18 | 40 | – | – | – | – | – | – | – | – | C/C=C1\NC(=O)c2cccc(n2)CNC(=O)C[C@@H](/C=C/CCS)OC(=O)[C@@H](C)NC1=O [Compound 145] | IC50 (HDAC11): 83 nM
2 | 92 | 53 | no activity | – | 92 | 12 | – | 35 | – | – | 36 | – | < 100 | 120 | 120 | 330 | 330 | 110 | 770 | 37 | C=C1NC(=O)c2cccc(n2)CNC(=O)C[C@@H](/C=C/CCSC(=O)CCCCCCC)OC(=O)[C@H](C(C)C)NC1=O [Compound 244] | GI50 [6, 21]: 110 nM; GI50 [7, 24]: 770 nM; GI50 [9, 25]: 990 nM; GI50 [9, 26]: 990 nM
3 | 176 | 61 | no activity | 1930 | 61 | 28 | 22000 | 79 | 920 | 23300 | 53 | 530 | – | – | – | – | – | – | – | 97 | C/C=C1\NC(=O)c2cccc(n2)CNC(=O)C[C@@H](/C=C/CCSC(C)=O)OC(=O)[C@H](Cc2cccc3ccccc23)NC1=O [Compound 17] | IC50 (HDAC1; [28]): 176 nM
4 | 8 | 19 | no activity | – | 38 | 92 | – | 45 | – | – | 42 | – | < 10 | 30 | 34 | 56 | 50 | 7 | 230 | 19 | C/C=C1\NC(=O)c2cccc(n2)CNC(=O)C[C@@H](/C=C/CCSC(=O)CCCCCCC)OC(=O)CNC1=O [Compound 235] | GI50 [6, 21]: 70 nM; GI50 [7, 24]: 230 nM; GI50 [9, 25]: 40 nM; GI50 [9, 26]: 40 nM

Continued, molecule first:

Row | Compound | IC50 (HDAC1; [10]) [nM] | IC50 (HDAC2) [nM] | IC50 HDAC7 (HDAC7) | GI50 [1, 11] [nM] | GI50 [2] [nM] | GI50 [3] [nM] | GI50 [4, 12] [nM] | GI50 [5] [nM] | GI50 [6, 13] [nM] | GI50 [7, 14] [nM] | GI50 [8] [nM] | GI50 [9, 15] [nM] | IC50 (HDAC1; [16]) [nM] | GI50 [1, 17] [nM] | GI50 [1, 18] [nM] | GI50 [4, 19] [nM] | GI50 [4, 20] [nM] | GI50 [6, 22] [nM] | GI50 [7, 23] [nM] | IC50 (HDAC11; [27]) [nM] | other results
5 | C/C=C1\NC(=O)c2cccc(n2)CNC(=O)C[C@@H](/C=C/CCSC(=O)CCCCCCC)OC(=O)[C@H](CC(C)C)NC1=O [Compound 241] | 28 | 36 | no activity | – | 64 | 82 | – | 29 | – | – | 63 | – | < 30 | 110 | 110 | 28 | 20 | 3 | 170 | – | GI50 [7, 24]: 170 nM; GI50 [9, 25]: 25 nM; GI50 [9, 26]: 20 nM; IC50 (HDAC11): 69 nM
6 | C=C1NC(=O)c2cccc(n2)CNC(=O)C[C@@H](/C=C/CCSC(C)=O)OC(=O)[C@H](C(C)C)NC1=O [Compound 19] | 179 | 63 | no activity | 90 | 92 | 24 | 80 | 95 | 1900 | 600 | 52 | 580 | – | – | – | – | – | – | – | 103 | IC50 (HDAC1; [28]): 179 nM
7 | C/C=C1\NC(=O)c2cc(F)cc(n2)CNC(=O)C[C@@H](/C=C/CCSC(=O)CCCCCCC)OC(=O)[C@H](Cc2ccccc2)NC1=O [Compound 70] | 33 | 43 | no activity | 40 | 36 | 37 | 30 | 36 | 30 | – | 43 | 30 | – | – | – | – | – | – | – | 97 | IC50 (HDAC1; Table 3, column C, read-out: IC50 HDAC1, C (six-membered ring with substituents)): 33 nM
